Tested on: Aspergillus niger (ATCC 6275) and Penicillium pinophilum (ATCC 9644) mixture (interior films); Aureobasidium pullulans (ATCC 9348) (exterior films)
Test: dry-film mildew resistance test of sealer/barrier compositions on coated filter paper on malt agar
Type: cell-based
Details: level of fungicide in the sealer/barrier composition; up to 14 days incubation
Protocol: The above sealer/barrier compositions were tested to determine the performance of dry-films as protective sealers in preventing the development of mildew during testing on porous cellulosic substrates. Several test samples of the composition were prepared with levels of fungicide ranging from 250 ppm to 3000 ppm. In addition, a composition was prepared without fungicide for use as a control.
Individual samples of the sealer/barrier composition were weighed out. Fungicide was added to the samples of the sealer/barrier coating compositions in a ladder series of levels (e.g., 250, 500, 750 1000 ppm, etc.) and thoroughly mixed. The test porous cellulosic substrates consisting of Whatman No. 30 filter paper were first brush coated each with two (2) coats of test composition, and allowed to dry in a protected location. Duplicate two inch squares were then cut from the coated filter paper specimens and placed on the surface on malt agar petri plates.
Test inoculums consisting of aqueous spore suspensions at a concentrations of ˜10^5 spores were prepared in sterile water. Those films (compositions) which were intended for use in interior application were inoculated with a mixture of Aspergillus niger (ATCC 6275) and Penicillium pinophilum (ATCC 9644). Films intended for exterior application were inoculated with Aureobasidium pullulans (ATCC 9348). […]

For `c1ccc2[nH]c(-c3cscn3)nc2c1` [biocide, 2-(4-thiazoyl)benzimidazole], the “biocide level capable of preventing mold development on the substrate” value was no more than 250 ppm.

Reference: patent publication US20050115197A1, “Antimicrobial barrier coatings and methods of use” (priority 2003, published 2005)
